≈ marks a conversion by molar mass, not a printed value.

One may read the IC50 as the concentration needed to halve the response being measured. Read a low IC50 as greater potency in that assay.

Series [1] deals with T1, Nitric oxide synthase, inducible (Mus musculus, UniProt P29477).
T1 sequence (P29477 whole entry): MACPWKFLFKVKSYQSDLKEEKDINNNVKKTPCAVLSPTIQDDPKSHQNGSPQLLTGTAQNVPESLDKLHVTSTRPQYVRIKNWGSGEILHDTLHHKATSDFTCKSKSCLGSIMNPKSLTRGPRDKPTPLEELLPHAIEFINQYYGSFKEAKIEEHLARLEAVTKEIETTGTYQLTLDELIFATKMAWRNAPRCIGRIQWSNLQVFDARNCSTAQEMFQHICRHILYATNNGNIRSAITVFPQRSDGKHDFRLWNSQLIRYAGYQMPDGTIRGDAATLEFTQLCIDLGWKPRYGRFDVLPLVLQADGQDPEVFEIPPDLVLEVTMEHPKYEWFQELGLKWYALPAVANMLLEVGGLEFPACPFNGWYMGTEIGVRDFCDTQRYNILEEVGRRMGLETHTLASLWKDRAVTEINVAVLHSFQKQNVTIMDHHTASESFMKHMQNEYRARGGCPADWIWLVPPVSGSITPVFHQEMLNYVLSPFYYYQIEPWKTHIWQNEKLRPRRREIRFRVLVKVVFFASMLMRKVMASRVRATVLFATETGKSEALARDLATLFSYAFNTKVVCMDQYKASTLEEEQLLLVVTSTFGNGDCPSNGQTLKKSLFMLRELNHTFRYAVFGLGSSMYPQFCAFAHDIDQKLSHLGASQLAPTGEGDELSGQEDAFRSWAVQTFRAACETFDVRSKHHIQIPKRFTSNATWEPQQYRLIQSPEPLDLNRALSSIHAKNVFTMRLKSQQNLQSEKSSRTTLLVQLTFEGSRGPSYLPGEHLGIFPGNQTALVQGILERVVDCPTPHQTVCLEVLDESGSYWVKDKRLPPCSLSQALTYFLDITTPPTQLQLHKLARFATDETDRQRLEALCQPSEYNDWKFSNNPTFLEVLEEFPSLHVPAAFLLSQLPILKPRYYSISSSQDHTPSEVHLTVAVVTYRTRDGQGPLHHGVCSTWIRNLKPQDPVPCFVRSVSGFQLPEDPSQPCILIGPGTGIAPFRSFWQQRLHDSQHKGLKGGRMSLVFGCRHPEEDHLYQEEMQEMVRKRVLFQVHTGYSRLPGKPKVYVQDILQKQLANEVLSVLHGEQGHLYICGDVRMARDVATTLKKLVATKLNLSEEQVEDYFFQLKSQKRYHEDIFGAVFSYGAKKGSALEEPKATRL
Description: Inhibition of iNOS-mediated NO production in LPS-stimulated mouse RAW264.7 cells by Griess method. The series is classed as cell-based. Background: Nitrite, measured by Griess reagent, commonly stands in for NO production.

Another series relates to PANC-1. In words: Cytotoxicity against human PANC1 cells after 72 hrs by MTT assay. The series is classed as functional, cell-based. Conditions: PANC-1, 72 h. (In general: Tetrazolium assays rely on reduction of a dye to a coloured formazan, in cell work by metabolically active cells.)
The next series deals with A549. In words: Cytotoxicity against human A549 cells after 72 hrs by MTT assay. The class given is functional, cell-based. As to conditions: A549, 72 h.
For the next series, the system named is P388. In words: Cytotoxicity against mouse P388 cells after 72 hrs by MTT assay. The class given is functional, cell-based. Conditions: P388, 72 h.
Series [2] is described as follows: Cytotoxicity against human NCI/ADR cells after 72 hrs by MTT assay. The class given is functional, cell-based. Conditions: NCI/ADR-RES.
Series [3] can be described thus: Cytotoxicity against mouse RAW264.7 cells assessed as cell viability at 1.3 ug/ml after 3 hrs by MTT assay. The class given is cell-based. As to conditions: read-out: Activity.

Take `C=C1C[C@@](C)(/C=C/C=C/CCCCCCCC)OC1=O` [PLAKOLIDE A]: the IC50 in series [1] is 724 nM; with PANC-1, 3.8 µg/mL (≈ 13.7 µM); in the series on A549, 5 µg/mL (≈ 18.1 µM); in the series with P388 it was 1.1 µg/mL (≈ 3.98 µM); in series [2], 3.7 µg/mL (≈ 13.4 µM). In addition, the viability at 3 h, 1.3 ug/ml in series [3] is 50%.

(Values after ChEMBL document CHEMBL1146468, “Plakolide A, a new gamma-lactone from the marine sponge Plakortis sp” (J Nat Prod, 2004).)
